Laboratory results taken from US11051515B2, “3-acyl-benzamides and their use as herbicides” (Bayer Aktiengesellschaft, priority 2017, dated 2021).

Columns and labels:
DIGSA [1] = test: Pre-emergence action against DIGSA; format: in vivo, Digitaria sanguinalis; details: dosage 320 g/ha, scored visually after 3 weeks vs untreated controls
Text: Seeds of monocotyledonous and dicotyledonous weed plants and crop plants are laid out in sandy loam soil in wood-fiber pots and covered with soil. The compounds of the invention, formulated in the form of wettable powders (WP) or as emulsion concentrates (EC), are then applied to the surface of the covering soil in the form of an aqueous suspension or emulsion at a water application rate equating to […], with addition of 0.2% wetting agent. After the treatment, the pots are placed in a greenhouse and kept under good growth conditions for the trial plants. The damage to the test plants is scored visually after a test period of 3 weeks by comparison with untreated controls (herbicidal activity in percent (%): 100% activity=the plants have died, 0% activity=like control plants).

ECHCG [2] = test: Pre-emergence action against ECHCG; format: in vivo, Echinochloa crus-galli; details: pre-emergence, dosage 320 g/ha, scored visually after 3 weeks vs untreated controls
Outline: (§1)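 Seeds sown in sandy loam in wood-fiber pots and covered with soil. Greenhouse growth; visual damage scored after 3 weeks versus untreated controls (100% = dead, 0% = like control).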

SETVI [3] = test: Pre-emergence action against SETVI; format: in vivo, Setaria viridis; details: pre-emergence, dosage 320 g/ha, scored visually after 3 weeks vs untreated controls
Outline: as §1

ABUTH [4] = test: Pre-emergence action against ABUTH; format: in vivo, Abutilon theophrasti; details: pre-emergence, dosage 320 g/ha, scored visually after 3 weeks vs untreated controls
Outline: as §1

AMARE [5] = test: Pre-emergence action against AMARE; format: in vivo, Amaranthus retroflexus; details: pre-emergence, dosage 320 g/ha, scored visually after 3 weeks vs untreated controls
Outline: as §1

MATIN [6] = test: Pre-emergence action against MATIN; format: in vivo, Matricaria inodora; details: Dosage 320 g/ha, pre-emergence
Outline: as §1

STEME [7] = test: Pre-emergence action against STEME; format: in vivo, Stellaria media; details: Dosage 320 g/ha, pre-emergence
Outline: as §1

VIOTR [8] = test: Pre-emergence action against VIOTR; format: in vivo, Viola tricolor; details: Dosage 320 g/ha, pre-emergence
Outline: as §1

VERPE [9] = test: Pre-emergence action against VERPE; format: in vivo, Veronica persica; details: Dosage 320 g/ha, pre-emergence
Outline: as §1

DIGSA [10] = test: Post-emergence action against DIGSA; format: in vivo, Digitaria sanguinalis; details: dosage 80 g/ha, visual assessment about 3 weeks after treatment vs untreated controls
Experimental: Seeds of monocotyledonous and dicotyledonous weed and crop plants are laid out in sandy loam soil in wood-fiber pots, covered with soil and cultivated in a greenhouse under good growth conditions. 2 to 3 weeks after sowing, the test plants are treated at the one-leaf stage. The compounds of the invention, formulated in the form of wettable powders (WP) or as emulsion concentrates (EC), are then sprayed onto the green parts of the plants in the form of an aqueous suspension or emulsion at a water application rate equating to […], with addition of 0.2% wetting agent. After the test plants have been left to stand in the greenhouse under optimal growth conditions for about 3 weeks, the action of the preparations is assessed visually in comparison to untreated controls (herbicidal action in percent (%): 100% activity=the plants have died, 0% activity=like control plants). […] At the same time, inventive compounds leave Gramineae crops such as barley, wheat, rye, millet/Sorghum, corn or rice virtually undamaged when applied post-emergence, even at high active ingredient dosages. In addition, some substances are also harmless to dicotyledonous crops such as soya, cotton, oilseed rape, sugar beet or potatoes. Some of the compounds according to the invention have high selectivity and are therefore suitable for controlling unwanted vegetation in agricultural crops by the post-emergence method. The data of Tables B18 to B34 below illustrate, in an exemplary manner, the […] herbicidal action of the compounds according to the invention, the herbicidal activity being stated in percent.

ABUTH [11] = test: Post-emergence action against ABUTH; format: in vivo, Abutilon theophrasti; details: post-emergence, dosage 80 g/ha, visual assessment about 3 weeks after treatment vs untreated controls
Outline: (§2)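 Post-emergence foliar spray on greenhouse plants at the one-leaf stage, using wettable-powder or emulsion-concentrate formulations in water (600 to […], plus 0.2% wetting agent). Damage scored by eye roughly 3 weeks later against untreated plants: 0% = like control, 100% = dead.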

AMARE [12] = test: Post-emergence action against AMARE; format: in vivo, Amaranthus retroflexus; details: post-emergence, dosage 80 g/ha, visual assessment about 3 weeks after treatment vs untreated controls
Outline: as §2

MATIN [13] = test: Post-emergence action against MATIN; format: in vivo, Matricaria inodora; details: post-emergence, dosage 80 g/ha, visual assessment about 3 weeks after treatment vs untreated controls
Outline: as §2

PHBPU [14] = test: Post-emergence action against PHBPU; format: in vivo, Pharbitis purpurea; details: post-emergence, dosage 80 g/ha
Outline: as §2

STEME [15] = test: Post-emergence action against STEME; format: in vivo, Stellaria media; details: post-emergence, dosage 80 g/ha
Outline: as §2

VIOTR [16] = test: Post-emergence action against VIOTR; format: in vivo, Viola tricolor; details: post-emergence, dosage 80 g/ha
Outline: as §2

VERPE [17] = test: Post-emergence action against VERPE; format: in vivo, Veronica persica; details: dosage 80 g/ha
Outline: as §2

ALOMY [18] = test: Pre-emergence action against ALOMY; format: in vivo, Alopecurus myosuroides; details: dosage 320 g/ha; pre-emergence; scored visually after 3 weeks vs untreated controls; 100% = plants have died, 0% = like control plants
Outline: as §1

AVEFA = test: Pre-emergence action against AVEFA; format: in vivo, Avena fatua; details: dosage 320 g/ha, scored visually after 3 weeks vs untreated controls
Outline: as §1

PHBPU [19] = test: Pre-emergence action against PHBPU; format: in vivo, Pharbitis purpurea; details: Dosage 320 g/ha, pre-emergence
Outline: as §1

ALOMY [20] = test: Post-emergence action against ALOMY; format: in vivo, Alopecurus myosuroides; details: Dosage 80 g/ha, post-emergence
Outline: as §2

ECHCG [21] = test: Post-emergence action against ECHCG; format: in vivo, Echinochloa crus-galli; details: post-emergence, dosage 80 g/ha, visual assessment about 3 weeks after treatment vs untreated controls
Outline: as §2

SETVI [22] = test: Post-emergence action against SETVI; format: in vivo, Setaria viridis; details: post-emergence, dosage 80 g/ha, visual assessment about 3 weeks after treatment vs untreated controls
Outline: as §2

POLCO = test: Post-emergence action against POLCO; format: in vivo, Polygonum convolvulus; details: post-emergence, dosage 80 g/ha
Outline: as §2

| Compound | Pre-emergence action against DIGSA (herbicidal activity) (DIGSA [1]) [%] | Pre-emergence action against ECHCG (herbicidal activity) (ECHCG [2]) [%] | SETVI (Table B8, pre-emergence herbicidal activity) (SETVI [3]) [%] | Pre-emergence action against ABUTH (herbicidal activity) (ABUTH [4]) [%] | Pre-emergence action against AMARE (herbicidal activity) (AMARE [5]) [%] | Pre-emergence action against MATIN (MATIN [6]) [%] | Pre-emergence action against STEME (STEME [7]) [%] | Pre-emergence action against VIOTR (VIOTR [8]) [%] | Pre-emergence action against VERPE (VERPE [9]) [%] | Post-emergence action against DIGSA (herbicidal action in percent) (DIGSA [10]) [%] | Post-emergence action against ABUTH (herbicidal action in percent) (ABUTH [11]) [%] | Post-emergence action against AMARE (herbicidal action in percent) (AMARE [12]) [%] | Post-emergence action against MATIN (herbicidal action in percent) (MATIN [13]) [%] | Post-emergence action against PHBPU (PHBPU [14]) | Post-emergence action against STEME (STEME [15]) | Post-emergence action against VIOTR (VIOTR [16]) | Post-emergence action against VERPE (VERPE [17]) | Pre-emergence action against ALOMY (herbicidal activity in percent) (ALOMY [18]) [%] | Pre-emergence action against PHBPU (PHBPU [19]) [%] | Post-emergence action against ECHCG (herbicidal action in percent) (ECHCG [21]) [%] | also measured |
| --- | --- | --- | --- | --- | --- | --- | --- | --- | --- | --- | --- | --- | --- | --- | --- | --- | --- | --- | --- | --- | --- |
| Cn1nnnc1NC(=O)c1ccc(C(F)(F)F)c(C(=O)C2CCCC2)c1Cl [1-154] | 100 | 100 | 80 | 100 | 100 | 100 | 100 | 100 | 90 | 80 | 90 | 90 | 80 | 80 | 90 | 80 | 80 | – | – | – | – |
| CCCC(=O)c1c(C(F)(F)F)ccc(C(=O)Nc2nnnn2CCC)c1C [3-16] | 90 | 90 | 100 | 100 | 100 | 100 | 100 | 90 | 100 | 90 | 100 | 100 | 90 | 90 | 90 | 80 | 80 | 80 | 80 | 90 | Pre-emergence action against AVEFA (herbicidal activity) (AVEFA): 80%; Post-emergence action against ALOMY (ALOMY [20]): 80%; Post-emergence action against SETVI (herbicidal action in percent) (SETVI [22]): 90%; Post-emergence action against POLCO (POLCO): 90 |
| CCn1nnnc1NC(=O)c1ccc(C(F)(F)F)c(C(=O)C2CCC2)c1SC [2-284] | 100 | 100 | 100 | 100 | 100 | 100 | 100 | 100 | 100 | 90 | 100 | 100 | 90 | 90 | 100 | 80 | 80 | 90 | 80 | 90 | Pre-emergence action against AVEFA (herbicidal activity) (AVEFA): 90%; Post-emergence action against SETVI (herbicidal action in percent) (SETVI [22]): 100%; Post-emergence action against POLCO (POLCO): 80 |
| CCn1nnnc1NC(=O)c1ccc(C(F)(F)F)c(C(=O)C(F)F)c1Cl [2-163] | 90 | 90 | 100 | 100 | 100 | 100 | 100 | 100 | – | 100 | 90 | 100 | 90 | 90 | 100 | 100 | – | – | 100 | 90 | Post-emergence action against SETVI (herbicidal action in percent) (SETVI [22]): 80% |
| CCn1nnnc1NC(=O)c1ccc(C(F)(F)F)c(C(=O)C2CCC2)c1Cl [2-153] | 100 | – | 100 | 100 | 100 | 100 | 90 | 100 | 100 | 100 | 100 | 90 | 100 | 80 | 100 | 90 | – | 90 | – | 90 | Post-emergence action against POLCO (POLCO): 80 |
| CCCn1nnnc1NC(=O)c1ccc(C(F)(F)F)c(C(=O)C2CCC2)c1SC [3-280] | 100 | 80 | 100 | 100 | 100 | 90 | 100 | 100 | – | 80 | 100 | 100 | 90 | 80 | 100 | 80 | – | – | – | 80 | – |
| CCCn1nnnc1NC(=O)c1ccc(C(F)(F)F)c(C(=O)C2CCC2)c1Cl [3-153] | 100 | – | 80 | 100 | 100 | 90 | – | 100 | – | 80 | 100 | 100 | 100 | – | 100 | – | – | – | – | – | – |
